In brackets after ≈: the same amount, converted by molar mass.
What was measured:
Type in all cases: cell-based
[1] = test system: PROVIDENCIA STUARTII CMX 640; conditions: P. stuartii CMX 640; BHI agar; unit assumed
[2] = test system: STREPTOCOCCUS BOVIS A-5169; assay: In vitro antibacterial activity, MIC, BHI agar dilution; conditions: S. bovis A-5169, unit assumed
ESCHERICHIA COLI DC-2 = assay: as above; conditions: E. coli DC-2, unit assumed
[3] = test system: STAPHYLOCOCCUS AUREUS NCTC10649M; assay: as above; conditions: S. aureus NCTC10649M, unit assumed
ESCHERICHIA COLI H560 = assay: as above; conditions: E. coli H560, unit assumed
[4] = test system: ACINETOBACTER CALCOACETICUS CMX 669; assay: as above; conditions: A. calcoaceticus CMX 669, unit assumed
H. Influenza Dill AMP R = assay: In vitro antibacterial activity against H. Influenza Dill AMP R, MIC; conditions: separate assay, unit assumed
Experimental: Representative compounds of the present invention were assayed in vitro for antibacterial activity as follows: Twelve petri dishes containing successive aqueous dilutions of the test compound mixed with 10 mL of sterilized Brain Heart Infusion (BHI) agar (Difco 0418-01-5) were prepared. Each plate was inoculated with 1:100 (or 1:10 for slow-growing strains, such as Micrococcus and Streptococcus) dilutions of up to 32 different microorganisms, using a Steers replicator block. The inoculated plates were incubated at 35-37° C. for 20 to 24 hours. In addition, a control plate, using BHI agar containing no test compound, was prepared and incubated at the beginning and end of each test.
After incubation, each plate was visually inspected. The minimum inhibitory concentration (MIC) was defmed as the lowest concentration of drug yielding no growth, a slight haze, or sparsely isolated colonies on the inoculum spot as compared to the growth control.
In a separate assay representative compounds of the invention were assayed in vitro for antibacterial activity against the H. Influenza Dill AMP R strain, according to the protocol described above.

ESCHERICHIA COLI KNK 437 = conditions: E. coli KNK 437; BHI agar; unit assumed
[5] = test system: STAPHYLOCOCCUS AUREUS A5177; assay: In vitro antibacterial activity, MIC, BHI agar dilution; conditions: S. aureus A5177, unit assumed
[6] = test system: STREPTOCOCCUS PYOGENES 930; assay: as above; conditions: S. pyogenes 930, unit assumed
[7] = test system: STAPHYLOCOCCUS EPIDERMIDIS 3519; conditions: S. epidermidis 3519; BHI agar; unit assumed
[8] = test system: STAPHYLOCOCCUS AUREUS 1775; assay: In vitro antibacterial activity, MIC, BHI agar dilution; conditions: S. aureus 1775, unit assumed
[9] = test system: PSEUDOMONAS AERUGINOSA K799/61; assay: as above; conditions: P. aeruginosa K799/61, unit assumed
ESCHERICHIA COLI SS = assay: as above; conditions: E. coli SS, unit assumed
[10] = test system: PSEUDOMONAS AERUGINOSA BMH10; assay: as above; conditions: P. aeruginosa BMH10, unit assumed
[11] = test system: PSEUDOMONAS AERUGINOSA DPHD-2862; assay: as above; conditions: P. aeruginosa DPHD-2862, unit assumed
[12] = test system: KLEBSIELLA PNEUMONIAE ATCC 8045; assay: as above; conditions: K. pneumoniae ATCC 8045, unit assumed
[13] = test system: STREPTOCOCCUS PYOGENES EES61; assay: as above; conditions: S. pyogenes EES61, unit assumed
[14] = test system: STREPTOCOCCUS PYOGENES PIU 2548; assay: as above; conditions: S. pyogenes PIU 2548, unit assumed
[15] = test system: STAPHYLOCOCCUS AUREUS A-5278; assay: as above; conditions: S. aureus A-5278, unit assumed
PSEUDOMONAS CEPACIA 296I = assay: as above; conditions: P. cepacia 296I, unit assumed
[16] = test system: STAPHYLOCOCCUS AUREUS CMX 642A; assay: as above; conditions: S. aureus CMX 642A, unit assumed
[17] = test system: PSEUDOMONAS AERUGINOSA 5007; assay: as above; conditions: P. aeruginosa 5007, unit assumed
M[…] ATCC 9341 = assay: as above; conditions: M. luteus ATCC 9341, unit assumed
Method in brief: (§1)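 Twelve successive aqueous dilutions of compound in Brain Heart Infusion agar were inoculated with 1:100 culture dilutions (1:10 for slow growers such as Micrococcus, Streptococcus) by Steers replicator and incubated at 35-37° C for 20 to 24 hours. MIC was the lowest concentration giving no growth, slight haze or sparse colonies versus drug-free control.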

STR[…] 508 = assay: as above; conditions: S. agalactiae CMX 508, unit assumed
Method in brief: as §1

M[…] ATCC 4698 = assay: as above; conditions: M. luteus ATCC 4698, unit assumed
Method in brief: as §1

EN[…] ATCC 8043 = assay: as above; conditions: E. faecium ATCC 8043, unit assumed
Method in brief: as §1

[18] = test system: PSEUDOMONAS AERUGINOSA DPHD-5263; assay: as above; conditions: P. aeruginosa DPHD-5263, unit assumed
[19] = test system: MYCOBACTERIUM SMEGMATIS ATCC 114; assay: as above; conditions: M. smegmatis ATCC 114, unit assumed
[20] = test system: ENTEROBACTER AEROGENES ATCC 13048; assay: as above; conditions: E. aerogenes ATCC 13048, unit assumed
CANDIDA ALBICANS CCH 442 = assay: as above; conditions: C. albicans CCH 442, unit assumed
[21] = test system: PSEUDOMONAS AERUGINOSA K799/WT; assay: as above; conditions: P. aeruginosa K799/WT, unit assumed
[22] = test system: STAPHYLOCOCCUS AUREUS CMX 553; assay: as above; conditions: S. aureus CMX 553, unit assumed
[23] = test system: STAPHYLOCOCCUS AUREUS ATCC 6538P; assay: as above; conditions: S. aureus ATCC 6538P, 35-37° C., 20 to 24 hours, unit assumed
ESCHERICHIA COLI JUHL = conditions: E. coli JUHL; BHI agar; unit assumed

Row | SMILES | MIC [1] [µg/mL] | MIC [2] [µg/mL] | MIC (ESCHERICHIA COLI DC-2) [µg/mL] | MIC [3] [µg/mL] | MIC (ESCHERICHIA COLI H560) [µg/mL] | MIC (H. Influenza Dill AMP R) [µg/mL] | MIC (ESCHERICHIA COLI KNK 437) [µg/mL] | MIC [5] [µg/mL] | MIC [6] [µg/mL] | MIC [7] [µg/mL] | MIC [8] [µg/mL] | MIC [9] [µg/mL] | MIC (ESCHERICHIA COLI SS) [µg/mL] | MIC [10] [µg/mL] | MIC [11] [µg/mL] | MIC [12] [µg/mL] | MIC [13] [µg/mL] | MIC [15] [µg/mL] | MIC (PSEUDOMONAS CEPACIA 296I) [µg/mL] | MIC [16] [µg/mL] | other results
1 | CC[C@H]1OC(=O)[C@H](C)C(=O)[C@H](C)[C@@H](O[C@@H]2O[C@H](C)C[C@H](N(C)C)[C@H]2O)[C@](C)(OC)C[C@@H](C)C2=N[C@@H]3COC[C@@H]3N3C(=O)O[C@@]1(C)[C@H]3[C@H]2C [Example 18] | > 100 | 0.05 (≈ 0.0735 µM) | > 100 | 0.78 (≈ 1.15 µM) | > 100 | 8 (≈ 11.8 µM) | > 100 | 0.78 (≈ 1.15 µM) | > 100 | 0.78 (≈ 1.15 µM) | > 100 | 6.2 (≈ 9.12 µM) | 0.78 (≈ 1.15 µM) | > 100 | > 100 | > 100 | 0.05 (≈ 0.0735 µM) | > 100 | > 100 | 0.78 (≈ 1.15 µM) | MIC [4]: > 100 µg/mL; MIC [14]: 0.39 µg/mL (≈ 0.574 µM); MIC [17]: > 100 µg/mL; MIC (M[…] ATCC 9341): 0.05 µg/mL (≈ 0.0735 µM); MIC (STR[…] 508): 0.05 µg/mL (≈ 0.0735 µM); MIC (M[…] ATCC 4698): 0.78 µg/mL (≈ 1.15 µM); MIC (EN[…] ATCC 8043): 0.1 µg/mL (≈ 0.147 µM); MIC [18]: > 100 µg/mL; MIC [19]: 3.1 µg/mL (≈ 4.56 µM); MIC [20]: > 100 µg/mL; MIC (CANDIDA ALBICANS CCH 442): > 100 µg/mL; MIC [21]: > 100 µg/mL; MIC [22]: 0.78 µg/mL (≈ 1.15 µM); MIC [23]: 0.39 µg/mL (≈ 0.574 µM)
2 | CC[C@H]1OC(=O)[C@H](C)C(=O)[C@H](C)[C@@H](O[C@@H]2O[C@H](C)C[C@H](N(C)C)[C@H]2O)[C@](C)(OC)C[C@@H](C)C2=NC3CN(C(C)=O)CC3N3C(=O)O[C@@]1(C)[C@H]3[C@H]2C (some centres unmarked) [Example 125] | > 100 | 0.2 (≈ 0.277 µM) | > 100 | 6.2 (≈ 8.6 µM) | > 100 | 128 (≈ 178 µM) | > 100 | 6.2 (≈ 8.6 µM) | > 100 | 6.2 (≈ 8.6 µM) | > 100 | 6.2 (≈ 8.6 µM) | 0.78 (≈ 1.08 µM) | > 100 | > 100 | > 100 | 0.1 (≈ 0.139 µM) | > 100 | > 100 | 12.5 (≈ 17.3 µM) | MIC (ESCHERICHIA COLI JUHL): > 100 µg/mL; MIC [4]: 100 µg/mL (≈ 139 µM); MIC [17]: > 100 µg/mL; MIC (M[…] ATCC 9341): 0.78 µg/mL (≈ 1.08 µM); MIC (STR[…] 508): 0.39 µg/mL (≈ 0.541 µM); MIC (M[…] ATCC 4698): 6.2 µg/mL (≈ 8.6 µM); MIC (EN[…] ATCC 8043): 1.56 µg/mL (≈ 2.16 µM); MIC [18]: > 100 µg/mL; MIC [19]: 50 µg/mL (≈ 69.4 µM); MIC [20]: > 100 µg/mL; MIC (CANDIDA ALBICANS CCH 442): > 100 µg/mL; MIC [21]: > 100 µg/mL; MIC [22]: 6.2 µg/mL (≈ 8.6 µM)
3 | CC[C@H]1OC(=O)[C@H](C)C(=O)[C@H](C)[C@@H](O[C@@H]2O[C@H](C)C[C@H](N(C)C)[C@H]2O)[C@](C)(OC)C[C@@H](C)C2=NCC(COC(=O)c3ccccc3)N3C(=O)O[C@@]1(C)[C@H]3[C@H]2C (some centres unmarked) [Example 139] | > 100 | ≤ 0.005 | 25 (≈ 32.4 µM) | 0.1 (≈ 0.13 µM) | 25 (≈ 32.4 µM) | 2 (≈ 2.59 µM) | 50 (≈ 64.8 µM) | 0.1 (≈ 0.13 µM) | 25 (≈ 32.4 µM) | 0.1 (≈ 0.13 µM) | > 100 | 0.39 (≈ 0.505 µM) | 0.39 (≈ 0.505 µM) | > 100 | 100 (≈ 130 µM) | 100 (≈ 130 µM) | 0.01 (≈ 0.013 µM) | > 100 | 25 (≈ 32.4 µM) | 0.1 (≈ 0.13 µM) | MIC (ESCHERICHIA COLI JUHL): 25 µg/mL (≈ 32.4 µM); MIC [14]: 0.39 µg/mL (≈ 0.505 µM); MIC [17]: > 100 µg/mL; MIC (M[…] ATCC 9341): 0.05 µg/mL (≈ 0.0648 µM); MIC (STR[…] 508): 0.02 µg/mL (≈ 0.0259 µM); MIC (M[…] ATCC 4698): 0.2 µg/mL (≈ 0.259 µM); MIC (EN[…] ATCC 8043): 0.02 µg/mL (≈ 0.0259 µM); MIC [18]: > 100 µg/mL; MIC [19]: 0.78 µg/mL (≈ 1.01 µM); MIC [20]: 100 µg/mL (≈ 130 µM); MIC (CANDIDA ALBICANS CCH 442): > 100 µg/mL; MIC [21]: 100 µg/mL (≈ 130 µM); MIC [22]: 0.1 µg/mL (≈ 0.13 µM); MIC [23]: 0.1 µg/mL (≈ 0.13 µM)
